Key:
Acute toxicity in mice = details: mouse, in vivo
From the text: The acute toxicities of the KA-6606 I, II, III and IV of this invention determined by using mice are as follows.

Solubility = assay type: physicochemical
Stability to pH = assay type: physicochemical
[1] = in chloroform, ethyl acetate, diethyl ether, hexane and petroleum ether

| SMILES | LD50 (Acute toxicity in mice; iv.) | LD50 (Acute toxicity in mice; sc.) | Solubility (Solubility; [1]) | Solubility (Solubility; in ethanol) | Solubility (Solubility; in methanol) | Solubility (Solubility; in water) | Stability (Stability to pH; in basicity and strong acidity) | Stability (Stability to pH; pH of 3 to 8) | Stability (Stability to pH; in strong acidity) | Stability (Stability to pH; pH of at least 2) |
| --- | --- | --- | --- | --- | --- | --- | --- | --- | --- | --- |
| COC1CC(N)C(OC2OC(C(C)N)CCC2N)C(O)C1N(C)C(=O)CNC=O (centres unmarked) [KA-6606 IV] | > 200 mg/kg | > 800 mg/kg | insoluble | slightly soluble | easily soluble | Very readily soluble | gradually decomposed and inactivated | Stable |  |  |
| COC1CC(N)C(OC2OC(C(C)N)CCC2N)C(O)C1N(C)C(=O)CNC(N)=O (centres unmarked) [KA-6606 III] | > 200 mg/kg | > 800 mg/kg | insoluble | slightly soluble | easily soluble | Very readily soluble | gradually decomposed and inactivated | Stable |  |  |
| CNC1C(OC)CC(N)C(OC2OC(C(C)N)CCC2N)C1O (centres unmarked) [KA-6606 II] | > 400 mg/kg | > 1000 mg/kg | insoluble | slightly soluble | easily soluble | Very readily soluble |  |  | gradually decomposed and inactivated | Stable |
| COC1CC(N)C(OC2OC(C(C)N)CCC2N)C(O)C1N(C)C(=O)CN (centres unmarked) [KA-6606 I] | 50 to 100 mg/kg | 200 to 400 mg/kg | Insoluble | slightly soluble | Easily soluble | Very readily soluble | gradually decomposed and inactivated | Stable |  |  |

— US4389486A, “Biologically pure culture” (Kowa Company, Ltd., priority 1977, dated 1983)
